Data reported in the supplement of paper PMC10307832.

Experiments:
Assay in all cases: relative viability (nuclei count vs DMSO), 5 days (fraction); higher = more cells survive
[1] = test system: NCI-H3122
Method in brief: (§1)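 After 5 days of treatment, lung cancer cells in 1536-well plates were fixed and stained in a single step (final 0.05% Triton X-100, 1% formaldehyde, 1 ug/ml Hoechst) and their nuclei counted on 4× images. Treatment had been applied by pin tool the day after seeding as one drug alone or as a fixed anchor-drug dose with five library-drug doses (not always all listed) in √10 steps. Relative viability is the nuclei count of treated wells divided by that of vehicle wells, and values are medians of duplicate plates.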

[2] = test system: LU99A
Method in brief: as §1

[3] = test system: LOU-NH91
Method in brief: as §1

[4] = test system: NCI-H1651
Method in brief: as §1

[5] = test system: NCI-H1755
Method in brief: as §1

[6] = test system: NCI-H460
Method in brief: as §1

[7] = test system: NCI-H2087
Method in brief: as §1

[8] = test system: NCI-H2228
Method in brief: as §1

[9] = test system: HCC-78
Method in brief: as §1

[10] = test system: CAL-12T
Method in brief: as §1

[11] = test system: LC-2-ad
Method in brief: as §1

[12] = test system: NCI-H1944
Method in brief: as §1

[13] = test system: NCI-H1395
Method in brief: as §1

[14] = test system: ABC-1
Method in brief: as §1

[15] = test system: PC-3 [JPC-3]
Method in brief: as §1

[16] = test system: RERF-LC-KJ
Method in brief: as §1

[17] = test system: NCI-H1793
Method in brief: as §1

[18] = test system: UMC-11
Method in brief: as §1

[19] = test system: NCI-H2170
Method in brief: as §1

[20] = test system: NCI-H2405
Method in brief: as §1

[21] = test system: ChaGo-K-1
Method in brief: as §1

[22] = test system: HCC-366
Method in brief: as §1

COc1nc(C)cnc1NS(=O)(=O)c1cccnc1-c1ccc(-c2nnco2)cc1 [Zibotentan] + COc1cccc2cc(-c3nc([C@H]4CC[C@H](C(=O)O)CC4)n4ncnc(N)c34)[nH]c12 [OSI-027] (partner 0.5 µM)
relative viability ([1]; first compound 0.08 µM): 1.01
relative viability ([1]; first compound 0.8 µM): 0.915
relative viability ([1]; first compound 2.53 µM): 0.957
relative viability ([2]; first compound 0.08 µM): 0.32
relative viability ([2]; first compound 0.253 µM): 0.302
relative viability ([2]; first compound 0.8 µM): 0.274
relative viability ([2]; first compound 2.53 µM): 0.338
relative viability ([3]; first compound 0.08 µM): 0.673
relative viability ([3]; first compound 0.253 µM): 0.681
relative viability ([3]; first compound 0.8 µM): 0.732
relative viability ([3]; first compound 2.53 µM): 0.784
relative viability ([4]; first compound 0.08 µM): 0.694
relative viability ([4]; first compound 0.253 µM): 0.641
relative viability ([4]; first compound 0.8 µM): 0.701
relative viability ([4]; first compound 2.53 µM): 0.72
relative viability ([5]; first compound 0.08 µM): 0.716
relative viability ([5]; first compound 0.253 µM): 0.685
relative viability ([5]; first compound 0.8 µM): 0.715
relative viability ([5]; first compound 2.53 µM): 0.793
relative viability ([6]; first compound 0.08 µM): 0.665
relative viability ([6]; first compound 0.253 µM): 0.408
relative viability ([6]; first compound 0.8 µM): 0.593
relative viability ([6]; first compound 2.53 µM): 0.66
relative viability ([7]; first compound 0.08 µM): 0.506
relative viability ([7]; first compound 0.253 µM): 0.506
relative viability ([7]; first compound 0.8 µM): 0.613
relative viability ([7]; first compound 2.53 µM): 0.632
relative viability ([8]; first compound 0.08 µM): 0.623
relative viability ([8]; first compound 0.253 µM): 0.571
relative viability ([8]; first compound 0.8 µM): 0.484
relative viability ([8]; first compound 2.53 µM): 0.659
relative viability ([9]; first compound 0.08 µM): 0.358
relative viability ([9]; first compound 0.253 µM): 0.332
relative viability ([9]; first compound 0.8 µM): 0.356
relative viability ([9]; first compound 2.53 µM): 0.323
relative viability ([10]; first compound 0.08 µM): 0.559
relative viability ([10]; first compound 0.253 µM): 0.551
relative viability ([10]; first compound 0.8 µM): 0.614
relative viability ([10]; first compound 2.53 µM): 0.629
relative viability ([11]; first compound 0.08 µM): 0.817
relative viability ([11]; first compound 0.8 µM): 1.13
relative viability ([11]; first compound 2.53 µM): 0.79
relative viability ([12]; first compound 0.08 µM): 0.439
relative viability ([12]; first compound 0.253 µM): 0.393
relative viability ([12]; first compound 0.8 µM): 0.427
relative viability ([12]; first compound 2.53 µM): 0.465
relative viability ([13]; first compound 0.08 µM): 0.727
relative viability ([13]; first compound 0.253 µM): 0.633
relative viability ([13]; first compound 0.8 µM): 0.577
relative viability ([13]; first compound 2.53 µM): 0.7
relative viability ([14]; first compound 0.08 µM): 0.608
relative viability ([14]; first compound 0.253 µM): 0.542
relative viability ([14]; first compound 0.8 µM): 0.53
relative viability ([14]; first compound 2.53 µM): 0.527
relative viability ([15]; first compound 0.08 µM): 0.789
relative viability ([15]; first compound 0.253 µM): 0.791
relative viability ([15]; first compound 0.8 µM): 0.737
relative viability ([15]; first compound 2.53 µM): 0.89
relative viability ([16]; first compound 0.08 µM): 0.609
relative viability ([16]; first compound 0.8 µM): 0.521
relative viability ([16]; first compound 2.53 µM): 0.646
relative viability ([17]; first compound 0.08 µM): 0.351
relative viability ([17]; first compound 0.253 µM): 0.284
relative viability ([17]; first compound 0.8 µM): 0.224
relative viability ([17]; first compound 2.53 µM): 0.254
relative viability ([18]; first compound 0.08 µM): 0.562
relative viability ([18]; first compound 0.253 µM): 0.462
relative viability ([18]; first compound 0.8 µM): 0.467
relative viability ([18]; first compound 2.53 µM): 0.514
relative viability ([19]; first compound 0.08 µM): 0.702
relative viability ([19]; first compound 0.253 µM): 0.761
relative viability ([19]; first compound 0.8 µM): 0.64
relative viability ([19]; first compound 2.53 µM): 0.791
relative viability ([20]; first compound 0.08 µM): 0.694
relative viability ([20]; first compound 0.253 µM): 0.657
relative viability ([20]; first compound 0.8 µM): 0.663
relative viability ([20]; first compound 2.53 µM): 0.627
relative viability ([21]; first compound 0.08 µM): 0.547
relative viability ([21]; first compound 0.253 µM): 0.579
relative viability ([21]; first compound 0.8 µM): 0.583
relative viability ([21]; first compound 2.53 µM): 0.604
relative viability ([22]; first compound 0.08 µM): 0.922
relative viability ([22]; first compound 0.253 µM): 0.884
relative viability ([22]; first compound 0.8 µM): 0.389
relative viability ([22]; first compound 2.53 µM): 1.1
